Assay results reported in ChEMBL document CHEMBL6092203, “Discovery of Novel PROTAC-Based HPK1 Degraders with High Potency and Selectivity for Cancer Immunotherapy” (J Med Chem, 2024).

Assays:
[1] = Volume of distribution at steady state in Beagle dog at 1 mg/kg, iv measured upto 24 hrs by LC-MS analysis; assay type: ADME, organism-based, Canis lupus familiaris; settings: in vivo
[2] = Drug distribution in rat thyroid gland measured after 0.5 to 6 hrs; assay type: ADME, tissue-based; settings: in vivo, time 0.5-6 hrs
[3] = Metabolic stability in monkey liver microsomes assessed as intrinsic clearance at 1 uM incubated for 45 mins by LC-MS/MS method; assay type: ADME, Macaca mulatta, Microsome; settings: rhesus monkey, read-out: CLH
Cytochrome P450 2B6 = molecular target: T1, Cytochrome P450 2B6 (Homo sapiens, UniProt P20813); assay: Inhibition of CYP2B6 in human liver microsomes using bupropion as substrate in presence of NADPH; assay type: ADME, Microsome
T1 sequence (P20813 whole entry): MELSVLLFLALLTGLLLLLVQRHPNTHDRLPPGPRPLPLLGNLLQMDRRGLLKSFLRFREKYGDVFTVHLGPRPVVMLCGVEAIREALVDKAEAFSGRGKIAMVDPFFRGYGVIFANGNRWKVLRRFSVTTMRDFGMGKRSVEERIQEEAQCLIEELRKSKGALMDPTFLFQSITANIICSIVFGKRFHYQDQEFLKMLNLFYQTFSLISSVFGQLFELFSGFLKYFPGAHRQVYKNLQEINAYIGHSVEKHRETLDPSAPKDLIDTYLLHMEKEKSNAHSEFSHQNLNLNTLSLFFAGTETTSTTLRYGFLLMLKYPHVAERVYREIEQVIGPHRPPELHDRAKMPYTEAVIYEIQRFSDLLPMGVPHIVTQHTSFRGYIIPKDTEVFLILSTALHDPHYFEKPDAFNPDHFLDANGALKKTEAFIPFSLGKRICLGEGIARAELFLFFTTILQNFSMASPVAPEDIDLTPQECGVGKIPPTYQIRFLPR

in vitro [4] = settings: rhesus monkey, hepatocytes
in vivo [5] = settings: male, Sprague-Dawley, rat, po, 100 mg/kg
[6] = Drug absorption in mouse at 10 to 100 mg/kg, po; assay type: ADME, organism-based; settings: in vivo, dose 10-100 mg/kg
[7] = Apparent permeability across apical to basolateral side in human Caco-2 cells at 10 uM incubated for 2 hrs by LC-MS/MS analysis; assay type: ADME, cell-based
MC-38 [8] = assay: Synergistic antitumor activity against mouse MC38 cells implanted in C57BL/6J mouse assessed as reduction in tumor weight at 100 mg/kg, po QD administered for 3 to 4 weeks in presence of 5 mg/kg anti-PD1 and measured twice a week (reference value: 1.79 +/- 0.24 g); assay type: functional; settings: time 3-4 weeks
[9] = Tmax in male Sprague-Dawley rat at 2 mg/kg/day, po measured at day 1; assay type: ADME, organism-based; settings: in vivo, time 1 day
[10] = Drug metabolism in human hepatocytes assessed as phase 1 metabolites formation at 10 uM incubated for 120 mins by UHPLC-UV/MS/MS method; assay type: ADME, cell-based, Hepatocyte; settings: 2 h
MC-38 [11] = assay: Antitumor activity against mouse MC38 cells implanted in C57BL/6J mouse assessed as tumor growth inhibition at 0.5 mg/kg, po BID measured after 4 weeks; assay type: functional; settings: MC-38, 672 h, read-out: TGI
Cytochrome P450 2C8 = molecular target: T2, Cytochrome P450 2C8 (Homo sapiens, UniProt P10632); assay: Inhibition of CYP2C8 in human liver microsomes using amodiaquine as substrate in presence of NADPH; assay type: ADME, Microsome
T2 sequence (P10632 whole entry): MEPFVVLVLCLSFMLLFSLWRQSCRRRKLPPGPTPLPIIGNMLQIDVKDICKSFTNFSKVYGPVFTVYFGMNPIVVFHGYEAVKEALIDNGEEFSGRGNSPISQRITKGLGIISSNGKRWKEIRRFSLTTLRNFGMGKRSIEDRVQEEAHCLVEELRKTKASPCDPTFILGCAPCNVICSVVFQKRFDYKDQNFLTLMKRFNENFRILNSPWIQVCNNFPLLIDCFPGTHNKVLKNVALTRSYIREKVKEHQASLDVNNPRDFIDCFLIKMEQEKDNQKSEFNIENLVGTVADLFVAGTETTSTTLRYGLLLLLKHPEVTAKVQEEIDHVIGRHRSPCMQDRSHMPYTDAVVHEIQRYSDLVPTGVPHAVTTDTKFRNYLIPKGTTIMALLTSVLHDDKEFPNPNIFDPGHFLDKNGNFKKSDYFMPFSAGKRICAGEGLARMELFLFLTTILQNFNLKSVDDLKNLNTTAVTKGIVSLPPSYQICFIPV

MC-38 [12] = assay: Synergistic antitumor activity against mouse MC38 cells implanted in C57BL/6J mouse assessed as reduction in tumor weight at 0.5 mg/kg, po bid administered for 3 to 4 weeks in presence of 5 mg/kg anti-PD1 and measured twice a week (reference value: 1.79 +/- 0.24 g); assay type: functional; settings: time 3-4 weeks
[13] = Drug distribution in rat liver measured after 0.5 to 6 hrs; assay type: ADME, tissue-based; settings: in vivo, time 0.5-6 hrs
MC-38 [14] = assay: Synergistic antitumor activity against mouse MC38 cells implanted in C57BL/6J mouse assessed as reduction in tumor weight at 1 mg/kg, po bid administered for 3 to 4 weeks in presence of 5 mg/kg anti-PD1 and measured twice a week (reference value: 1.79 +/- 0.24 g); assay type: functional; settings: time 3-4 weeks
MC-38 [15] = assay: Antitumor activity against mouse MC38 cells implanted in C57BL/6J mouse assessed as reduction in tumor weight at 0.1 mg/kg, po BID administered for 3 to 4 weeks (reference value: 1.79 +/- 0.24 g); assay type: functional; settings: time 3-4 weeks
[16] = Half-life in C57BL/6J mouse at 10 mg/kg, po measured upto 24 hrs by LC-MS analysis; settings: in vivo
[17] = In vivo induction of HPK1 degradation in C57BL/6J mouse spleen at 0.5 mg/kg administered as single dose and measured after 8 to 24 hrs; assay type: functional; settings: time 8-24 hrs
MC-38 [18] = assay: Antitumor activity against mouse MC38 cells implanted in C57BL/6J mouse assessed as reduction in tumor volume at 100 mg/kg, po QD administered for 3 to 4 weeks (reference value: 1549.22 +/- 217.92 mm3); assay type: functional; settings: time 3-4 weeks
MC-38 [19] = assay: Synergistic antitumor activity against mouse MC38 cells implanted in C57BL/6J mouse assessed as tumor weight inhibition rate at 0.5 mg/kg, po bid measured after 4 weeks in presence of 5 mg/kg anti-PD1 and measured twice a week; assay type: functional; parameters: scale not given: the % may be the effect or the level left
[20] = AUC(0 to 24 hrs) in male Sprague-Dawley rat at 2 mg/kg/day, po measured at day 1; assay type: ADME, organism-based; settings: in vivo, time 1 day
in vivo [21] = settings: female, Sprague-Dawley, rat, po, 30 mg/kg
in vivo [22] = settings: C57BL/6J, mouse, po, 10 mg/kg
in vivo [23] = settings: beagle, dog, po, 5 mg/kg
Description: Oral bioavailability in Beagle dog at 5 mg/kg measured upto 24 hrs by LC-MS analysis

in vitro [24] = settings: mouse, hepatocytes
hERG (KCNH2) = hERG (KCNH2) (Homo sapiens, UniProt Q12809); assay: Inhibition of human ERG at 3 uM by patch clamp method relative to control; assay type: toxicity
Sequence of hERG (KCNH2) (Q12809 whole entry): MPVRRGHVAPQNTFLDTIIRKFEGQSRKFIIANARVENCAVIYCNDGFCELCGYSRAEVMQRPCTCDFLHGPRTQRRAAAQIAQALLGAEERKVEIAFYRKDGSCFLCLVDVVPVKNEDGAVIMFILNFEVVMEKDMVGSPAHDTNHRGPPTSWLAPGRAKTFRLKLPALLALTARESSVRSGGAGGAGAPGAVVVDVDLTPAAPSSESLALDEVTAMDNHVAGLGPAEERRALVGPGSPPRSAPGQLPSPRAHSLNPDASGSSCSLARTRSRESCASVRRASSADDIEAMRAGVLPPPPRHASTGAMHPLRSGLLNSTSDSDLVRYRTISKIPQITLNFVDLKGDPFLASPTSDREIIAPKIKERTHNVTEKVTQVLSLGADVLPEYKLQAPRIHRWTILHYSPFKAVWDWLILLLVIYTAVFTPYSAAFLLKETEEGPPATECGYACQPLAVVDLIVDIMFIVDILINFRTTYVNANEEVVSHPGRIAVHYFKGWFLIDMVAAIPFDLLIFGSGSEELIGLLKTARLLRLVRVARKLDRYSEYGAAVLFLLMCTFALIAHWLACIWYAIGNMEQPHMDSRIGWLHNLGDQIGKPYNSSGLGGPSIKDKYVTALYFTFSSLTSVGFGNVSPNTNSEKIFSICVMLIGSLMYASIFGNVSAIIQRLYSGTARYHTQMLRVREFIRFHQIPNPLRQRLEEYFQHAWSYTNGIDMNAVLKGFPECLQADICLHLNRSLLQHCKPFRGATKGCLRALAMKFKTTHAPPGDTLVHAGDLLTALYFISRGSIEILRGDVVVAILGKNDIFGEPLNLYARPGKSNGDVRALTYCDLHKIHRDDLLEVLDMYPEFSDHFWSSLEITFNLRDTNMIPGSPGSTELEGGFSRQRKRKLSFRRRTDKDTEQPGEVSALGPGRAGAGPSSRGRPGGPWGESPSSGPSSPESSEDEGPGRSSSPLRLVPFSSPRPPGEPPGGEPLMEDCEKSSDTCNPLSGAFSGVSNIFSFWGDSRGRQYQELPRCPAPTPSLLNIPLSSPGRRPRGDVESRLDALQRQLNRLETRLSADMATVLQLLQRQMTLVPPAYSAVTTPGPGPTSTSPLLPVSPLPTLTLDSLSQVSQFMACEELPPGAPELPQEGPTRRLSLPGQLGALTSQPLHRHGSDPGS

Vdss [1]: 0.386 L/kg
Drug uptake [2]: Active
microsomal CLint at 1 µM [3]: 38 µL/min/mg
IC50 (Cytochrome P450 2B6): > 10 µM
half-life at 1.5 h, 1 µM (in vitro [4]): 1.3 h
Cmax at 336 h (in vivo [5]): 11.1 µg/mL
Drug absorption [6]: Active
Papp A→B at 2 h, 10 µM [7]: 1.6 nm/s
Tmax [9]: 8.67 h
Drug metabolism [10]: metabolite_detected
IC50 (Cytochrome P450 2C8): > 10 µM
Drug uptake [13]: Active
half-life at 24 h [16]: 3.44 h
AUC(0-t) at 24 h [20]: 1.04 µg·h/mL
AUC at 336 h (in vivo [21]): 46 µg·h/mL
Cmax at 24 h (in vivo [22]): 3.18 µg/mL
bioavailability at 24 h (in vivo [23]): 16%
half-life at 1.5 h, 1 µM (in vitro [24]): 7.62 h
Structure (SMILES): O=C1CCN(c2cc(C(=O)N3CCC(CC4CCN(c5ccc(-c6cnc7[nH]cc(-c8cnn(CC(F)(F)F)c8)c7n6)cn5)CC4)CC3)ccc2Cl)C(=O)N1
Activity (MC-38 [8]): 0.3 g
inhibition in vivo at 0.5 mg/kg (MC-38 [11]): 51.4%
Activity (MC-38 [12]): 0.24 g
Activity (MC-38 [14]): 0.47 g
Activity (MC-38 [15]): 1.4 g
Emax at 0.5 mg/kg [17]: 61.3%
Activity (MC-38 [18]): 667.6 mm3
Activity (MC-38 [19]): 86.54%
inhibition at 3 µM (hERG (KCNH2)): 4.36%
